This note sets out measurements from patent publication US20230183179A1, “NOVEL CELL METABOLISM MODULATING COMPOUNDS AND USES THEREOF” (CRESCENTA BIOSCIENCES, priority 2020, published 2023).

Assay [1] addresses T1, His6 tagged human recombinant FABP4 (Homo sapiens, UniProt P15090).
T1 construct: purchased Cayman Chemicals 10009549
The assay is described as follows: FABP4 TR-FRET assay: displacement of fluorescent fatty acid BODIPY FL C12. The conditions noted are these: inhibition of BODIPY FL C12 binding to His6-FABP4; 1.2 μL of 1.085 mM compound in DMSO per well; triplicates, mean percent inhibition. In short, it runs like this: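 TR-FRET displacement of BODIPY FL C12 from His6-FABP4 bound by Tb-anti-His6 antibody, in Tris pH 7.4 buffer with γ-globulins, NP-40 and DTT; compound stock 1.085 mM in DMSO. Read after 10 min at room temperature as 520/615 nm ratio; mean % inhibition versus DMSO from triplicates.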
On the technique in general: Time-resolved FRET reads energy transfer from a long-lived donor to a nearby acceptor.

Assay [2] has as its system differentiated 3T3-L1 mouse adipocyte cells. The assay is described as follows: Adipocyte glucose consumption in differentiated 3T3-L1 cells (colorimetric glucose assay of the medium). The format is cell-based. The conditions noted are these: 3T3-L1, 24 h, compound 10 μM, loss of glucose from culture medium, mean fold change (compound/DMSO). In short, it runs like this: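 Differentiated 3T3-L1 mouse adipocytes (rosiglitazone/dexamethasone/IBMX/insulin induction, day 11) treated 24 h with compounds at 10 μM, 0.1% DMSO final. Medium glucose measured colorimetrically; consumption taken as glucose loss from medium versus cell-free control, expressed as mean fold change compound/DMSO ±SD.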

A word on the inhibition: it is the drop in the measured response relative to a control, in per cent. The fold induction is the ratio of treated to control signal.

T1 sequence (P15090 whole entry): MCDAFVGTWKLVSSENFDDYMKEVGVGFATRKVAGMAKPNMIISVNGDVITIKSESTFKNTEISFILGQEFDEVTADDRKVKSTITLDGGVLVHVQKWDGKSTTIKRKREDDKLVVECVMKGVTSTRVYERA

For `CN(CC(=O)O)c1cc(-c2ccccc2)c2cc(CCc3cccnc3)ccc2n1` [2-[methyl({4-phenyl-6-[2-(pyridin-3-yl)ethyl]quinolin-2-yl})amino]acetic acid], in assay [1], the inhibition at 1085 µM (stock) amounted to 32%. In assay [2], this compound came in with a fold induction at 10 µM of 1.41.
